Measurements taken from patent US10208033B2, “β-carboline, dihydro-β-carboline and tetrahydro-β-carboline alkaloid derivatives and preparation methods same and use in aspects of preventing and treating plant viruses, fungicides and insecticides” (NANKAI UNIVERSITY, priority 2013, dated 2019).
Where a name gives a salt, the structure may show the parent alone. Read-outs that look alike come from different tables or passages of the source.

How the values were obtained:
[1] = tested on: tobacco mosaic virus (TMV); assay: Anti-TMV in vitro effect (half-leaf soaking); type: cell-based, tobacco mosaic virus (host Nicotiana tabacum L.cv.Xanthi NN)
[2] = tested on: tobacco mosaic virus (TMV); assay: Anti-TMV in vivo inactivation; set-up: species or system tobacco mosaic virus (host Nicotiana tabacum L.cv.Xanthi NN)
[3] = tested on: tobacco mosaic virus (TMV); assay: Anti-TMV in vivo therapeutic effect; set-up: species or system tobacco mosaic virus (host Nicotiana tabacum L.cv.Xanthi NN)
[4] = tested on: tobacco mosaic virus (TMV); assay: Anti-TMV in vivo protective effect; set-up: species or system tobacco mosaic virus (host Nicotiana tabacum L.cv.Xanthi NN)
[5] = tested on: cucumber fusarium wilt; assay: Fungicidal (bactericidal) activity in vitro, PDA colony diameter; type: cell-based; conditions: 50 mg/kg
[6] = tested on: Cercospora arachidicola; assay: as above; type: cell-based
[7] = tested on: Macrophoma kawatsukai; assay: as above; type: cell-based; conditions: 50 mg/kg
[8] = tested on: Alternaria solani; assay: as above; type: cell-based; conditions: 50 mg/kg
[9] = tested on: Fusarium graminearumt; assay: microbe, parasite or virus in culture; type: cell-based; conditions: 50 mg/kg
[10] = tested on: potato late blight; assay: microbe, parasite or virus in culture; type: cell-based
[11] = tested on: Sclerotinia scleotiorum; assay: Fungicidal (bactericidal) activity in vitro, PDA colony diameter; type: cell-based; conditions: 50 mg/kg
[12] = tested on: Botrytis cinerea; assay: as above; type: cell-based; conditions: 50 mg/kg
[13] = tested on: Rhizoctonia solani; assay: as above; type: cell-based; conditions: 50 mg/kg
[14] = tested on: Phytophthora capsici; assay: as above; type: cell-based; conditions: 50 mg/kg
[15] = tested on: Fusarium fujikuroi; assay: as above; type: cell-based
[16] = tested on: Rhizoctonia cereali; assay: as above; type: cell-based; conditions: 50 mg/kg
[17] = tested on: Bipolaria maydis; assay: organism not typed; type: cell-based; conditions: 50 mg/kg
[18] = tested on: Colletotrichum orbiculare; assay: Fungicidal (bactericidal) activity in vitro, PDA colony diameter; type: cell-based; conditions: 50 mg/kg
[19] = tested on: armyworms; type: in vivo; conditions: concentration 600 mg/kg
[20] = tested on: cotton bollworms; assay: whole plant or invertebrate
Procedure: Experimental method of cotton bollworms: feed and drug mixing method: measure 3 mL of prepared solution and add it to about 27 g of newly prepared feed, thereby obtaining needed concentration through dilution by 10 times.

[21] = tested on: mosquito larvae; assay: whole plant or invertebrate
Procedure: Experimental method of mosquito larvae: culex pipiens pallens, a normal colony raised indoors. Weigh about 5 mg of the compound for test, put it in a penicillin vial, add 5 mL of acetone (or an appropriate solvent), and shake and dissolve it to obtain a 1000 ppm mother solution. Pipette 0.5 mL of the mother solution, add it to a 100 mL beaker filled with 89.9 mL of water, select 10 mosquito larvae at the beginning of the fourth instar, and pour them to a beaker together with 10 mL of feeding solution. The concentration of the drug solution is 5 ppm. […] Use an aqueous solution containing 0.5 mL of test solvent as a blank.

[22] = tested on: corn borers

Row | Compound | Relative inhibition rate (%) In vitro activity ([1]; treatment dose 100 μg/mL) [%] | Relative inhibition rate (%) In vitro activity ([1]; treatment dose 500 μg/mL) [%] | Relative inhibition rate (%) In vivo inactivation ([2]; treatment dose 100 μg/mL) [%] | Relative inhibition rate (%) In vivo inactivation ([2]; treatment dose 500 μg/mL) [%] | Relative inhibition rate (%) In vivo therapy ([3]; treatment dose 100 μg/mL) [%] | Relative inhibition rate (%) In vivo therapy ([3]; treatment dose 500 μg/mL) [%] | Relative inhibition rate (%) In vivo protection ([4]; treatment dose 100 μg/mL) [%] | Relative inhibition rate (%) In vivo protection ([4]; treatment dose 500 μg/mL) [%] | Bactericidal activity (%) Cucumber fusarium wilt [5] [%] | Bactericidal activity (%) Macrophoma kawatsukai [7] [%] | Bactericidal activity (%) Alternaria solani [8] [%] | Bactericidal activity (%) Fusarium graminearumt [9] [%] | Bactericidal activity (%) Sclerotinia scleotiorum [11] [%] | Bactericidal activity (%) Botrytis cinerea [12] [%] | Bactericidal activity (%) Rhizoctonia solani [13] [%] | Bactericidal activity (%) Phytophthora capsici [14] [%] | Bactericidal activity (%) Rhizoctonia cereali [16] [%] | Bactericidal activity (%) Bipolaria maydis [17] [%] | Bactericidal activity (%) Colletotrichum orbiculare [18] [%] | Armyworm Mortality (%) [19] [%] | further results
1 | CC(=O)Oc1ccc2c(c1)[nH]c1c(C)nccc12 [Ia-7, Acetate (1-methylpyridino [3,4-b]indol-7)-ester] | 0 | 30 | 0 | 20.3 | 0 | 24.1 | 0 | 27.2 | 14.3 | 5.9 | 33.3 | 35.7 | 76.0 | 36.4 | 0.0 | 18.2 | 62.5 | 21.1 | 33.3 | 35 | Bactericidal activity (%) Cercospora arachidicola [6]: 35.7%; Bactericidal activity (%) potato late blight ([10]; 50 mg/kg): 20.0%; Bactericidal activity (%) Fusarium fujikuroi [15]: 35.7%; Cotton bollworm Mortality (%) ([20]; concentration 600 mg/kg): 30%; Mosquito larvae Mortality (%) ([21]; concentration 10 mg/kg, 24 h): 65%; Corn borer Mortality (%) ([22]; concentration 600 mg/kg): 25%
2 | CCOC(=O)c1cc2c([nH]c3ccccc32)c(C)n1 [Ia-10, 1-methyl-pyridino [3,4-b] indol-3-ethyl formate] | 0 | 33.3 | 0 | 26.3 | 0 | 28.8 | 0 | 23.7 | 23.8 | 52.9 | 61.1 | 71.4 | 68.0 | 13.6 | 39.3 | 51.5 | 78.1 | 36.8 | 47.6 | 30 | Bactericidal activity (%) Cercospora arachidicola ([6]; 50 mg/kg): 35.7%; Bactericidal activity (%) potato late blight ([10]; 50 mg/kg): 35.0%; Bactericidal activity (%) Fusarium fujikuroi ([15]; 50 mg/kg): 35.7%; Cotton bollworm Mortality (%) ([20]; concentration 600 mg/kg): 40%; Mosquito larvae Mortality (%) ([21]; concentration 10 mg/kg, 24 h): 65%; Corn borer Mortality (%) ([22]; concentration 600 mg/kg): 30%
3 | Cc1nc(/C=C/C(=O)O)cc2c1[nH]c1ccccc12 [Ia-14, (E)-3-(1-methyl-pyridino [3,4-b]indol-3)-acrylic acid] | 0 | 25.8 | 0 | 18.4 | 0 | 21.5 | 0 | 28.4 | 23.1 | 47.6 | 10.5 | 14.3 | 9.8 | 12.1 | 39.5 | 18.8 | 63.2 | 22.7 | 25.0 | 25 | Bactericidal activity (%) Cercospora arachidicola ([6]; 50 mg/kg): 84.6%; Bactericidal activity (%) potato late blight [10]: 22.7%; Bactericidal activity (%) Fusarium fujikuroi ([15]; 50 mg/kg): 28.6%; Cotton bollworm Mortality (%) ([20]; concentration 600 mg/kg): 30%; Mosquito larvae Mortality (%) ([21]; concentration 10 mg/kg, 24 h): 35%; Corn borer Mortality (%) ([22]; concentration 600 mg/kg): 20%
4 | O=C(O)/C=C/c1cc2c([nH]c3ccccc32)c(-c2cccs2)n1 [Ia-15, (E)-3-(1-(thiophene-2)-pyridino [3,4-b]indol-3)-acrylic acid] | 0 | 40.2 | 13.5 | 39.6 | 10 | 36.2 | 10.2 | 35.1 | 33.3 | 58.8 | 22.2 | 78.6 | 76.0 | 68.2 | 17.9 | 66.7 | 81.3 | 73.7 | 66.7 | 15 | Bactericidal activity (%) Cercospora arachidicola ([6]; 50 mg/kg): 21.4%; Bactericidal activity (%) potato late blight [10]: 55.0%; Bactericidal activity (%) Fusarium fujikuroi ([15]; 50 mg/kg): 64.3%; Cotton bollworm Mortality (%) ([20]; concentration 600 mg/kg): 15%; Mosquito larvae Mortality (%) ([21]; concentration 10 mg/kg, 24 h): 35%; Corn borer Mortality (%) ([22]; concentration 600 mg/kg): 5%
5 | O=C(O)/C=C/c1cc2c([nH]c3ccccc32)c(-c2cccnc2)n1 [Ia-16, (E)-3-(1-(pyridine-3)-pyridino [3,4-b]indol-3)-acrylic acid] | 0 | 17.8 | 0 | 26.5 | 0 | 20.2 | 0 | 21.3 | 4.8 | 23.5 | 22.2 | 42.9 | 76.0 | 4.6 | 0.0 | 9.1 | 53.1 | 15.8 | 23.8 | 10 | Bactericidal activity (%) Cercospora arachidicola ([6]; 50 mg/kg): 0.0%; Bactericidal activity (%) potato late blight [10]: 15.0%; Bactericidal activity (%) Fusarium fujikuroi ([15]; 50 mg/kg): 28.6%; Cotton bollworm Mortality (%) ([20]; in vivo): 5%; Mosquito larvae Mortality (%) ([21]; in vivo): 20%; Corn borer Mortality (%) ([22]; in vivo): 10%
6 | CCOC(=O)[C@@H]1Cc2c([nH]c3ccccc23)CN1 [Ib-7, (S)-2,3,4,9-tetrahydropyridino [3,4-b] indol-3-ethyl formate] | 12.3 | 26.9 | 19.3 | 36.5 | 15.9 | 30.7 | 16.2 | 40.1 | 33.3 | 64.7 | 50.0 | 42.9 | 60.0 | 50.0 | 42.9 | 66.7 | 78.1 | 42.1 | 47.6 | 5 | Bactericidal activity (%) Cercospora arachidicola ([6]; 50 mg/kg): 42.9%; Bactericidal activity (%) potato late blight [10]: 40.0%; Bactericidal activity (%) Fusarium fujikuroi ([15]; 50 mg/kg): 64.3%; Cotton bollworm Mortality (%) ([20]; concentration 600 mg/kg): 20%; Mosquito larvae Mortality (%) ([21]; concentration 10 mg/kg, 24 h): 15%; Corn borer Mortality (%) ([22]; concentration 600 mg/kg): 5%
